Laboratory results taken from US20100099561A1, “HETEROBICYCLIC ALKYLTHIO-BRIDGED ISOXAZOLINES” (E.I. DU PONT DE NEMOURS AND COMPANY, priority 2008, published 2010).

What was measured:
Assay type in all cases: in vivo
[1] = system: morningglory (Ipomoea spp.); assay: Test A preemergence, morningglory; conditions: 0 to 100 scale (0 no effect, 100 complete control)
Excerpt: (§1) Seeds of barnyardgrass (Echinochloa crus-galli), large crabgrass (Digitaria sanguinalis), giant foxtail (Setaria faberi), morningglory (Ipomoea spp.), pigweed (Amaranthus retroflexus), velvetleaf (Abutilon theophrasti), wheat (Triticum aestivum), and corn (Zea mays) were planted into a blend of loam soil and sand and treated preemergence with a directed soil spray using test chemicals formulated in a non-phytotoxic solvent mixture which included a surfactant. At the same time these species were also treated with postemergence applications of test compounds formulated in the same manner. Plants ranged in height from two to ten cm and were in the one- to two-leaf stage for the postemergence treatment. Treated plants and untreated controls were maintained in a greenhouse for approximately ten days, after which time all treated plants were compared to untreated controls and visually evaluated for injury. Plant response ratings, summarized in Table A, are based on a 0 to 100 scale where 0 is no effect and 100 is complete control. A dash (-) response means no test result.

corn (Zea mays) [2] = assay: Test A preemergence, corn; conditions: 0 to 100 scale (0 no effect, 100 complete control)
Excerpt: as §1

[3] = system: morningglory (Ipomoea spp.); assay: Test A postemergence, morningglory; conditions: 0 to 100 scale (0 no effect, 100 complete control)
Excerpt: as §1

[4] = system: pigweed (Amaranthus retroflexus); assay: Test A postemergence, pigweed; conditions: 0 to 100 scale (0 no effect, 100 complete control)
Excerpt: as §1

[5] = system: pigweed (Amaranthus retroflexus); assay: Test A preemergence, pigweed; conditions: 0 to 100 scale (0 no effect, 100 complete control)
Excerpt: as §1

[6] = system: barnyardgrass (Echinochloa crus-galli); assay: Test A preemergence, barnyardgrass; conditions: 0 to 100 scale (0 no effect, 100 complete control)
Excerpt: as §1

[7] = system: giant foxtail (Setaria faberi); assay: Test A postemergence, giant foxtail; conditions: 0 to 100 scale (0 no effect, 100 complete control)
Excerpt: as §1

corn (Zea mays) [8] = assay: Test A postemergence, corn; conditions: 0 to 100 scale (0 no effect, 100 complete control)
Excerpt: as §1

[9] = system: ducksalad (Heteranthera limosa); assay: Test B flooded paddy test, ducksalad; conditions: Flood, scale 0 to 100
Excerpt: (§2) Plant species in the flooded paddy test consisted of rice (Oryza sativa), umbrella sedge (Cyperus difformis), ducksalad (Heteranthera limosa) and barnyardgrass (Echinochloa crus-galli) grown to the 2-leaf stage for testing. At time of treatment, test pots were flooded to 3 cm above the soil surface, treated by application of test compounds directly to the paddy water, and then maintained at that water depth for the duration of the test. Treated plants and controls were maintained in a greenhouse for 13 to 15 days, after which time all species were compared to controls and visually evaluated. Plant response ratings, summarized in Table B, are based on a scale of 0 to 100 where 0 is no effect and 100 is complete control. A dash (-) response means no test result.

[10] = system: giant foxtail (Setaria faberi); assay: Test A preemergence, giant foxtail; conditions: 0 to 100 scale (0 no effect, 100 complete control)
Excerpt: as §1

[11] = system: velvetleaf (Abutilon theophrasti); assay: Test A preemergence, velvetleaf; conditions: 0 to 100 scale (0 no effect, 100 complete control)
Excerpt: as §1

[12] = system: large crabgrass (Digitaria sanguinalis); assay: Test A postemergence, large crabgrass; conditions: 0 to 100 scale (0 no effect, 100 complete control)
Excerpt: as §1

[13] = system: wheat (Triticum aestivum); assay: Test A preemergence, wheat; conditions: 0 to 100 scale (0 no effect, 100 complete control)
Excerpt: as §1

[14] = system: wheat (Triticum aestivum); assay: Test A postemergence, wheat; conditions: 0 to 100 scale (0 no effect, 100 complete control)
Excerpt: as §1

[15] = system: large crabgrass (Digitaria sanguinalis); assay: Test A preemergence, large crabgrass; conditions: 0 to 100 scale (0 no effect, 100 complete control)
Excerpt: as §1

[16] = system: barnyardgrass (Echinochloa crus-galli); assay: Test B flooded paddy test, barnyardgrass; conditions: Flood
Excerpt: as §2

[17] = system: velvetleaf (Abutilon theophrasti); assay: Test A postemergence, velvetleaf; conditions: 0 to 100 scale (0 no effect, 100 complete control)
Excerpt: as §1

rice (Oryza sativa) = assay: Test B flooded paddy test, rice; conditions: Flood, scale 0 to 100
Excerpt: as §2

[18] = system: umbrella sedge (Cyperus difformis); assay: Test B flooded paddy test, umbrella sedge; conditions: Flood, scale 0 to 100
Excerpt: as §2

[19] = system: barnyardgrass (Echinochloa crus-galli); assay: Test A postemergence, barnyardgrass; conditions: 0 to 100 scale (0 no effect, 100 complete control)
Excerpt: as §1

[20] = 250 g ai/ha, scale 0 to 100 (0 no effect, 100 complete control)

Compound: CC1(C)CC(S(=O)(=O)Cc2c(C(F)(F)F)nc3cccnn3c2=O)=NO1 [Compound 45]
- Plant response rating, Morningglory ([1]; 125 g ai/ha): 0
- Plant response rating, Morningglory ([1]; 500 g ai/ha): 0
- Plant response rating, Corn (corn (Zea mays) [2]; 125 g ai/ha): 0
- Plant response rating, Corn (corn (Zea mays) [2]; 500 g ai/ha): 0
- Plant response rating, Morningglory ([3]; 125 g ai/ha): 0
- Plant response rating, Morningglory ([3]; 500 g ai/ha): 30
- Plant response rating, Pigweed ([4]; 125 g ai/ha): 0
- Plant response rating, Pigweed ([4]; 500 g ai/ha): 10
- Plant response rating, Pigweed ([5]; 500 g ai/ha): 0
- Plant response rating, Barnyardgrass ([6]; 125 g ai/ha): 20
- Plant response rating, Barnyardgrass ([6]; 500 g ai/ha): 90
- Plant response rating, Foxtail, Giant ([7]; 125 g ai/ha): 20
- Plant response rating, Foxtail, Giant ([7]; 500 g ai/ha): 60
- Plant response rating, Corn (corn (Zea mays) [8]; 125 g ai/ha): 0
- Plant response rating, Corn (corn (Zea mays) [8]; 500 g ai/ha): 0
- Plant response rating, Ducksalad ([9]; 31 g ai/ha): 0
- Plant response rating, Ducksalad ([9]; 62 g ai/ha): 0
- Plant response rating, Ducksalad ([9]; 125 g ai/ha): 0
- Plant response rating, Ducksalad ([9]; 250 g ai/ha): 0
- Plant response rating, Foxtail, Giant ([10]; 125 g ai/ha): 30
- Plant response rating, Foxtail, Giant ([10]; 500 g ai/ha): 90
- Plant response rating, Velvetleaf ([11]; 125 g ai/ha): 0
- Plant response rating, Velvetleaf ([11]; 500 g ai/ha): 0
- Plant response rating, Crabgrass, Large ([12]; 125 g ai/ha): 20
- Plant response rating, Crabgrass, Large ([12]; 500 g ai/ha): 70
- Plant response rating, Wheat ([13]; 125 g ai/ha): 0
- Plant response rating, Wheat ([13]; 500 g ai/ha): 10
- Plant response rating, Wheat ([14]; 125 g ai/ha): 0
- Plant response rating, Wheat ([14]; 500 g ai/ha): 0
- Plant response rating, Crabgrass, Large ([15]; 125 g ai/ha): 20
- Plant response rating, Crabgrass, Large ([15]; 500 g ai/ha): 90
- Plant response rating, Barnyardgrass ([16]; 31 g ai/ha, scale 0 to 100): 0
- Plant response rating, Barnyardgrass ([16]; 62 g ai/ha, scale 0 to 100): 0
- Plant response rating, Barnyardgrass ([16]; 125 g ai/ha, scale 0 to 100): 0
- Plant response rating, Barnyardgrass [16, 20]: 0
- Plant response rating, Velvetleaf ([17]; 125 g ai/ha): 0
- Plant response rating, Velvetleaf ([17]; 500 g ai/ha): 0
- Plant response rating, Rice (rice (Oryza sativa); 31 g ai/ha): 0
- Plant response rating, Rice (rice (Oryza sativa); 62 g ai/ha): 0
- Plant response rating, Rice (rice (Oryza sativa); 125 g ai/ha): 0
- Plant response rating, Rice (rice (Oryza sativa); 250 g ai/ha): 0
- Plant response rating, Sedge, Umbrella ([18]; 31 g ai/ha): 0
- Plant response rating, Sedge, Umbrella ([18]; 62 g ai/ha): 0
- Plant response rating, Sedge, Umbrella ([18]; 125 g ai/ha): 0
- Plant response rating, Sedge, Umbrella ([18]; 250 g ai/ha): 0
- Plant response rating, Barnyardgrass ([19]; 125 g ai/ha): 30
- Plant response rating, Barnyardgrass ([19]; 500 g ai/ha): 70

Compound: CC1(C)CC(S(=O)(=O)Cc2c(C(F)(F)F)nc3ccccn3c2=O)=NO1 [Compound 7]
- Plant response rating, Morningglory ([1]; 125 g ai/ha): 0
- Plant response rating, Morningglory ([1]; 500 g ai/ha): 0
- Plant response rating, Corn (corn (Zea mays) [2]; 125 g ai/ha): 0
- Plant response rating, Corn (corn (Zea mays) [2]; 500 g ai/ha): 0
- Plant response rating, Morningglory ([3]; 125 g ai/ha): 0
- Plant response rating, Morningglory ([3]; 500 g ai/ha): 0
- Plant response rating, Pigweed ([4]; 125 g ai/ha): 0
- Plant response rating, Pigweed ([4]; 500 g ai/ha): 0
- Plant response rating, Pigweed ([5]; 125 g ai/ha): 0
- Plant response rating, Pigweed ([5]; 500 g ai/ha): 0
- Plant response rating, Barnyardgrass ([6]; 125 g ai/ha): 60
- Plant response rating, Barnyardgrass ([6]; 500 g ai/ha): 90
- Plant response rating, Foxtail, Giant ([7]; 125 g ai/ha): 60
- Plant response rating, Foxtail, Giant ([7]; 500 g ai/ha): 80
- Plant response rating, Corn (corn (Zea mays) [8]; 125 g ai/ha): 0
- Plant response rating, Corn (corn (Zea mays) [8]; 500 g ai/ha): 0
- Plant response rating, Ducksalad ([9]; 62 g ai/ha): 0
- Plant response rating, Ducksalad ([9]; 250 g ai/ha): 0
- Plant response rating, Foxtail, Giant ([10]; 125 g ai/ha): 80
- Plant response rating, Foxtail, Giant ([10]; 500 g ai/ha): 90
- Plant response rating, Velvetleaf ([11]; 125 g ai/ha): 0
- Plant response rating, Velvetleaf ([11]; 500 g ai/ha): 0
- Plant response rating, Crabgrass, Large ([12]; 125 g ai/ha): 40
- Plant response rating, Crabgrass, Large ([12]; 500 g ai/ha): 80
- Plant response rating, Wheat ([13]; 125 g ai/ha): 0
- Plant response rating, Wheat ([13]; 500 g ai/ha): 10
- Plant response rating, Wheat ([14]; 125 g ai/ha): 0
- Plant response rating, Wheat ([14]; 500 g ai/ha): 0
- Plant response rating, Crabgrass, Large ([15]; 125 g ai/ha): 60
- Plant response rating, Crabgrass, Large ([15]; 500 g ai/ha): 80
- Plant response rating, Barnyardgrass ([16]; 62 g ai/ha, scale 0 to 100): 0
- Plant response rating, Barnyardgrass [16, 20]: 0
- Plant response rating, Velvetleaf ([17]; 125 g ai/ha): 0
- Plant response rating, Velvetleaf ([17]; 500 g ai/ha): 20
- Plant response rating, Rice (rice (Oryza sativa); 62 g ai/ha): 0
- Plant response rating, Rice (rice (Oryza sativa); 250 g ai/ha): 0
- Plant response rating, Sedge, Umbrella ([18]; 62 g ai/ha): 0
- Plant response rating, Sedge, Umbrella ([18]; 250 g ai/ha): 0
- Plant response rating, Barnyardgrass ([19]; 125 g ai/ha): 80
- Plant response rating, Barnyardgrass ([19]; 500 g ai/ha): 80
